# Reference: patent US20110183975A1, “NOVEL 6-AZAINDOLE AMINOPYRIMIDINE DERIVATIVES HAVING NIK INHIBITORY ACTIVITY” (priority 2008, published 2011)
# pIC50: −log10 of the molar value.
# How the values were obtained:
# [1] = molecular target: T1, Truncated human NIK (Homo sapiens, UniProt Q99558); assay: NIK inhibitory activity: SRPKtide phosphorylation with [γ-33P] ATP, filter plate; format: biochemical; details: GST-tagged truncated human NIK, 20 μM peptide substrate, 10 μM ATP, 25° C., 240 minutes
# T1 construct: made in house; host or cells: Sf9 insect cells (baculovirus)
# T1 sequence (Q99558 319-947): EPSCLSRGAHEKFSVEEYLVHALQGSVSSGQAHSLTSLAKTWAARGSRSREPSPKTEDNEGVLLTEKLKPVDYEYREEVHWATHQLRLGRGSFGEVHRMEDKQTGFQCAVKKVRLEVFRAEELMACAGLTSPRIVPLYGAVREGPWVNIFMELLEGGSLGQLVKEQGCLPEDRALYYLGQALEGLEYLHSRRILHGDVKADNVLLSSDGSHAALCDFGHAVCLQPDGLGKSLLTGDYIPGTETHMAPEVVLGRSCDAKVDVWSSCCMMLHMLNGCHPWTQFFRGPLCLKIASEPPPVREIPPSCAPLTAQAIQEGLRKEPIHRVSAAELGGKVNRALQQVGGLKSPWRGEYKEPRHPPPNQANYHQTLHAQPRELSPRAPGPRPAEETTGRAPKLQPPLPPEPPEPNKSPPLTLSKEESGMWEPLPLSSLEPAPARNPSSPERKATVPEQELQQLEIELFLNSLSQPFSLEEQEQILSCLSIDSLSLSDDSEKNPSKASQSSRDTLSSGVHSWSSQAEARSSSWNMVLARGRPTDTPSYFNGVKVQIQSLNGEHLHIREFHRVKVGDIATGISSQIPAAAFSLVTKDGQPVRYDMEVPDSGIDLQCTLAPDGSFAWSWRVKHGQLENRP
# Text: Truncated human NIK [319-947(end) amino acids of accession number AAH35576] was expressed in sf9 cells as N-terminus gluthatione-S-transferase (GST)-tagged protein using baculovirus expression system. The sf9 cells were harvested and lysed, and then the GST-tagged human NIK protein was applied onto a glutathione column (GSTrap, GE Healthcare) and eluted from the column with reduced glutathione. The active fractions were desalted with a desalting column (PD-10, GE Healthcare) to give a purified enzyme.
# For measurement of the activity of NIK, the SRPKtide peptide (Arg-Ser-Arg-Ser-Arg-Ser-Arg-Ser-Arg-Ser-Arg-Ser-Arg-Ser-Arg-NH2) (SEQ.ID.NO.:1) was synthesized as a substrate, as described above.
# The phosphorylation reaction was conducted using 384 well plate, and the reaction volume was 10.5 μL/well. The reaction buffer is comprised of 10 mM 3-Morpholinopropanesulfonic acid buffer (pH 7.4), 5 mM magnesium chloride, 1 mM O,O′-Bis (2-aminoethyl) ethyleneglycol-N,N,N′,N′-tetraacetic acid (EGTA) and 1 mM dithiothreitol. Thereto, the purified NIK protein, 20 μM of the peptide substrate, 10 μM of adenosine 5′-triphosphate (ATP) and 0.5 μCi [γ-33P] ATP solution were added, and then the reaction was carried out at 25° C. for 240 minutes. The [γ-33P]-labeled ATP was purchased from PerkinElmer Inc.
# After the termination of the reaction by adding 20 μL of 350 mM phosphoric acid (H3PO4), the substrate peptide was adsorbed on a filter plate (Millipore Multiscreen, MZPHN0W50). The substrate-bound filter plate was washed with 130 mM phosphoric acid for several times and then 8 μL of Microscinti-O (PerkinElmer Inc.) was added to the each well. The radiation activity of the peptide was measured with TopCount NXT Microscintillation Counter (PerkinElmer Inc.).
# (§1) The compound to be tested was diluted in dimethylsulfoxide (DMSO) and then 0.5 μL of this solution was added to each well. Each control well was provided by adding 0.5 μL of DMSO to the well in place of the DMSO solution containing the compound to be tested.
# [2] = molecular target: T2, human NIK (U-2 OS Tet-On-NIK cells) (Homo sapiens, UniProt Q99558); assay: Cellular NIK inhibitory activity using ELISA-based IKKalpha phosphorylation assay; format: cell-based; details: NIK dependent IKKalpha phosphorylation, doxycycline 2 micrograms/ml, 24 hours
# T2 construct: expressed in transfected cells; host or cells: U-2 OS Tet-On cells carrying NF-kappa B reporter genes, stably transfected with pTRE2hyg-NIK
# T2 sequence (Q99558 whole entry): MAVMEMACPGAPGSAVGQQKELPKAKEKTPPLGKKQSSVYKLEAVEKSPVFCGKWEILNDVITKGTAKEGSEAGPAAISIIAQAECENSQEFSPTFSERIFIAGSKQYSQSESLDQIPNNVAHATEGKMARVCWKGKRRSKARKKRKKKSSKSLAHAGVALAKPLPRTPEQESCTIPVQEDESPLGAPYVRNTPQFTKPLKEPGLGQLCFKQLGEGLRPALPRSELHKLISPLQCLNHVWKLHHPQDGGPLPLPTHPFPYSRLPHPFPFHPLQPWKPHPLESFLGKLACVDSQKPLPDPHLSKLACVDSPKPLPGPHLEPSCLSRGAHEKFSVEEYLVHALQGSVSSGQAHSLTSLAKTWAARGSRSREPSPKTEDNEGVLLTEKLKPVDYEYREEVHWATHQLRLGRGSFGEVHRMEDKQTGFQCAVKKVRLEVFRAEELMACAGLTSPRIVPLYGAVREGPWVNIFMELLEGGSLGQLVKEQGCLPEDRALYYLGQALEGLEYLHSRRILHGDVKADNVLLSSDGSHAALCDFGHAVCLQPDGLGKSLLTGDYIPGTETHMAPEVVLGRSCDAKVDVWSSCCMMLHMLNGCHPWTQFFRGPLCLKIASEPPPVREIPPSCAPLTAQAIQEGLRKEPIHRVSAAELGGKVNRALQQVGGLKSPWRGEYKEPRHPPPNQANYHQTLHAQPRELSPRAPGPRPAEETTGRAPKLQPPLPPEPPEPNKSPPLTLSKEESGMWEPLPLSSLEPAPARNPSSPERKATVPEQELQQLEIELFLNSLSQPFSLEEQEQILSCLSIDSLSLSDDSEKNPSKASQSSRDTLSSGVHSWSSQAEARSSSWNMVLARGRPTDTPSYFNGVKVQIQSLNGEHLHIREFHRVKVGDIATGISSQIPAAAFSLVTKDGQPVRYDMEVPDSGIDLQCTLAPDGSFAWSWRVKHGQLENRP
# Description: NF-kappa B reporter genes (Clontech Laboratories, Inc.) was introduced into U-2 OS Tet-On cell line (Clontech Laboratories, Inc.) by the co-transfection with puromycin resistance gene (Clontech Laboratories, Inc.). […] NIK protein expression in this established cells (U-2 OS Tet-On-NIK) was controlled in a doxycycline dependent manner. The cells were cultured in DMEM containing 10% FBS, 100 units/ml of penicillin, 0.1 mg of streptomycin sulfate, 100 microgram/ml of hygromycin and 1 microgram/ml of puromycin (Growth medium).
# U-2 OS Tet-On-NIK cells were plated on 96-well plate (Nunc) at 20000 cells per well and were incubated overnight at 37° C. in 5% CO2-95% air. The tested compound was diluted in dimethylsulfoxide (DMSO) and further diluted with a growth medium. Then the compound solution and doxycycline (Clontech Laboratories, Inc.) solution (final working concentration is 2 micrograms/ml) were simultaneously added to the each well. […]
# Rabbit anti-IKKalpha [pSpS176/180] phosphospecific antibody (Biosource International, Inc.) or rabbit anti-IKKalpha antibody (Abcam, Inc.) was incubated on wells of an MAXISORP ELISA plate (Nunc) at 4° C. for overnight. […] After stopping HRP-reactions (SureBlue Reserve™ TMB substrate, Kirkegaard & Perry Laboratories, Inc.) by 1N hydrochloric acid, the optical density in each well was determined using a SpectraMax Plus 384 (Molecular Devices Corporation) at 450 nm.
# Cellular NIK inhibitory activity of the test compound was represented as IC50 value determined by the following procedure.
# Optical density of phospho-IKKalpha in each sample was normalized using the ratio of phospho-IKKalpha to total IKKalpha. The % of Control value was calculated by the following equation. […]
# Then the IC50 value for NIK dependent IKKalpha phosphorylation was determined.
# [3] = molecular target: T3, human ROCK2 catalytic domain (Homo sapiens, UniProt O75116); assay: ROCK2 inhibitory activity: peptide phosphorylation, IMAP fluorescence polarization; format: biochemical; details: for pIC50: His-tagged human ROCK2, 100 nM peptide substrate, 5 μM ATP, 30° C., 150 minutes; for Selectivity of NIK over ROCK2: IC50 for ROCK2 divided by IC50 for NIK
# T3 construct: made in house; host or cells: Sf9 insect cells
# T3 sequence (O75116 11-552): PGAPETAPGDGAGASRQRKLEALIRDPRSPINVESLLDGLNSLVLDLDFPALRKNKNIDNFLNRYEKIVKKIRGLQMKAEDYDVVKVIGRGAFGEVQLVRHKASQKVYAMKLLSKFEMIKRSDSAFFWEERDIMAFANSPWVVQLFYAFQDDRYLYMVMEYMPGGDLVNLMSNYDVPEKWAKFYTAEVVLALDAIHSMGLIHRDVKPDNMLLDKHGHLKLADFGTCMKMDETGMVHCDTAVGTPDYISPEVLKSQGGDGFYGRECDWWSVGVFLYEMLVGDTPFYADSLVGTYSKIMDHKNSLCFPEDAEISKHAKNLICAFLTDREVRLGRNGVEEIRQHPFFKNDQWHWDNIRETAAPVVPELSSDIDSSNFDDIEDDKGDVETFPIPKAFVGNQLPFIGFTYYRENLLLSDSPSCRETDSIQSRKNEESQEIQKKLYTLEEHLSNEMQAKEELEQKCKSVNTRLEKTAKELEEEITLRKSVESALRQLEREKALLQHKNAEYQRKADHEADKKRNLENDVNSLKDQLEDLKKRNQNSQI
# Text: cDNA of N-terminal His-tagged human ROCK2 catalytic domain [11-552 amino acids of accession number NP_00004841.2] was integrated into an expression vector, which was then highly expressed in sf9 cells. The sf9 cells were harvested and lysed, and then the His-tagged human ROCK2 protein was applied onto HisTrap HP (GE Healthcare) and eluted from the column with imidazole. The active fractions were desalted with a desalting column (PD-10, GE Healthcare) to give a purified enzyme.
# For measurement of the activity of ROCK2, the substrate used was a synthetic peptide (5-FAM (5-carboxyfluorescein)-Ala-Lys-Arg-Arg-Arg-Leu-Ser-Ser-Leu-Arg-Ala-OH) (SEQ.ID.NO.:2) (Trauger J W. et. al, Biochemistry, 41, 8948-8953 (2002)), which was custom-made by JPT Peptide Technologies GmbH.
# For detection of phosphorylation of the substrate, IMAP® technology (Molecular Devices, Co. Ltd.) (Gaudet E W. et. al, J. Biomol. Screen, 8, 164-175(2003)) was used.
# The phosphorylation reaction was conducted using 384 well plate, and the reaction volume was 10.5 μL/well. The reaction buffer is comprised of 50 mM Tris-chloride buffer (pH 7.5), 10 mM magnesium acetate, 1 mM O,O′-Bis(2-aminoethyl)ethyleneglycol-N,N,N′,N′-tetraacetic acid (EGTA) and 1 mM dithiothreitol. Thereto, the purified ROCK2 protein, 100 nM of the peptide substrate, and 5 μM of adenosine 5′-triphosphate were added, and then the reaction was carried out at 30° C. for 150 minutes.
# Thereafter, in order to terminate and detect the reaction, 30 μL of the IMAP (registered trademark) binding reagent (IMAP Progressive Binding Reagent) that had been diluted (1:500) in the 1× IMAP binding buffer A (IMAP Progressive Binding Buffer A, 5× stock) was added to each well. The solution stood still for 30 minutes in the dark, and then fluorescence polarization was measured using a high-end microplate reader (excitation wavelength: 485 nm; emission wavelength: 520 nm).
# as §1, with “tested. In Table 3, the selectivity of NIK over ROCK2 was calculated by dividing the value of IC50 for ROCK2 by the value of IC50 for NIK.” for “tested.”
pIC50 [1],pIC50 [2],pIC50 [3],Selectivity of NIK over ROCK2 [3],SMILES
7.07,6.64,6.00,11.9,"CC(C)n1cc(-c2ccnc(Nc3cc(C(N)=O)ccc3OCc3ccccc3)n2)c2ccncc21 [Example 94, 4-Benzyloxy-3-[4-(1-isopropyl-1H-pyrrolo[2,3-c]pyridin-3-yl)-pyrimidin-2-ylamino]-benzamide]"
7.58,6.70,5.34,173.3,"CNC(=O)c1ccc(OC)c(Nc2nccc(-c3cn(C(C)C)c4cnccc34)n2)c1 [Example 71, 3-[4-(1-Isopropyl-1H-pyrrolo[2,3-c]pyridin-3-yl)-pyrimidin-2-ylamino]-4-methoxy-N-methyl-benzamide]"
7.20,6.85,5.59,40.9,"Cc1ccc(C(N)=O)cc1Nc1nccc(-c2cn(C(C)C)c3cnccc23)n1 [Example 85, 3-[4-(1-Isopropyl-1H-pyrrolo[2,3-c]pyridin-3-yl)-pyrimidin-2-ylamino]-4-methyl-benzamide]"

SMILES,pIC50 [1],pIC50 [2],pIC50 [3],Selectivity of NIK over ROCK2 [3]
"CC(C)n1cc(-c2ccnc(Nc3ccccc3)n2)c2ccncc21 [Example 3, [4-(1-Isopropyl-1H-pyrrolo[2,3-c]pyridin-3-yl)-pyrimidin-2-yl]-phenyl-amine]",6.37,–,7.07,0.20
